# Earlier results as cited in patent publication US8309351B2, “Methods of identifying agents that inhibit angiogenesis” (Bionomics Limited, priority 2007, dated 2012).
# Tested on: lung cancer cells
# Conditions: knock-down of beta III tubulin in lung cancer cells
smiles,measurement,value
CC(=O)O[C@H]1C(=O)[C@@]2(C)[C@H]([C@H](OC(=O)c3ccccc3)[C@]3(O)C[C@H](OC(=O)[C@H](O)[C@@H](NC(=O)c4ccccc4)c4ccccc4)C(C)=C1C3(C)C)[C@]1(OC(C)=O)CO[C@@H]1C[C@@H]2O [paclitaxel],increase in paclitaxel sensitivity,39%
